Test results from patent US7572765B2, “Conformationally constrained parathyroid hormone (PTH) analogs” (The General Hospital Corporation, priority 2001, dated 2009).
Square brackets hold non-standard residues; d marks the D form. Peptide text beside a SMILES is read from it. hArg = N=C(N)NCCCC[C@H](N)C(=O)O; Aib = CC(C)(N)C(=O)O

What was measured:
Format in all cases: cell-based
[1] = target: T1, P1R-delNt, truncated human P1R deleted for residues (24-181) (Homo sapiens, UniProt Q03431); test: cAMP stimulation in COS-7 cells expressing hP1R-delNt; details: for cAMP EMax(obs.) / EC50: hP1R-delNT; for cAMP EMax(obs.): basal 9.5 ± 1.3, asterisk = plateau not attained
T1 construct: expressed in transfected cells; host or cells: COS-7 (transient, FuGENE 6)
T1 sequence (Q03431 with tags, fused parts or gaps limits assumed): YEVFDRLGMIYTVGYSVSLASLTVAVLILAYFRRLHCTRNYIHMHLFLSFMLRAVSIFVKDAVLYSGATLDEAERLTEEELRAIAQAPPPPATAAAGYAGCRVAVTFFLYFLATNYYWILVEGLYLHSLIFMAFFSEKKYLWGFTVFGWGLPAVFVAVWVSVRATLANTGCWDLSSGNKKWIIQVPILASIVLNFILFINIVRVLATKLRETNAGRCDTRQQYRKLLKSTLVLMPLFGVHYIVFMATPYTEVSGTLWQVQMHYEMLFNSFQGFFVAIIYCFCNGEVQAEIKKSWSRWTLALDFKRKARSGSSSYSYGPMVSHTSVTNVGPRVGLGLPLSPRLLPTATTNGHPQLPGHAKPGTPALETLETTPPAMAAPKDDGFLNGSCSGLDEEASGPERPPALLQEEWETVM
Procedure: (§1) Cell Culture. The cell line HKRK-B28 (Takasu, H., et al., J. Bone Miner. Res. 14:11-20 (1999)) was derived from the porcine kidney cell line, LLC-PK1 by stable transfection with plasmid DNA encoding the human P1R and expresses ˜280,000 receptors per cell. These cells, as well as COS-7 cells and SaOS-2-B10 cells, were cultured at […] in T-75 flasks ([…]) in Dulbecco's modified Eagle's medium (DMEM) supplemented with fetal bovine serum (10%), penicillin G (20 units/ml), streptomycin sulfate (20 μg/ml) and amphotericin B (0.05 μg/ml) in a humidified atmosphere containing 5% CO2. Stock solutions of EGTA/trypsin and antibiotics were from GIBCO; fetal bovine serum was from Hyclone Laboratories (Logan, Utah). COS-7 cells sub-cultured in 24-well plates were transfected with plasmid DNA (200 ng per well) encoding the wild-type human P1R or truncated human P1R deleted for residues (24-181) (Shimizu, M., et al., J. Biol. Chem. 275:21836-21843 (2000)) that was purified by cesium chloride/ethidium bromide density gradient centrifugation, and FuGENE 6 transfection reagent (Roche Indianapolis Ind.) according to the manufacturer's recommended procedure. All cells, in 24-well plates, were treated with fresh media and shifted to 33° C. for 12 to 24 h prior to assay.
(§2) cAMP Stimulation. Stimulation of cells with peptide analogs was performed in 24-well plates. Cells were rinsed with 0.5 mL of binding buffer (50 mM Tris-HCI, […], 5 mM KCl, 2 mM CaCl2, 5% heat-inactivated horse serum, 0.5% fetal bovine serum, adjusted to pH 7.5 with HCl) and treated with 200 μL of cAMP assay buffer (Delbecco's modified Eagle's medium containing 2 mM 3-isobutyl-1-methylxanthine, 1 mg/mL bovine serum albumin, 35 mM Hepes-NaOH, pH 7.4) and 100 μL of binding buffer containing varying amounts of peptide analog (final volume=300 μL). The medium was removed after incubation for 30 to 60 minutes at room temperature, and the cells were frozen on dry ice, lysed with 0.5 mL 50 mM HCl, and refrozen ([…]). The cAMP content of the diluted lysate was determined by radioimmunoassay. The EC50 response values were calculated using nonlinear regression (see below).
(§3) Data Calculation. Calculations were performed using Microsoft® Excel. Nonlinear regression analyses of binding and cAMP dose-response data were performed using the four-parameter equation: yp=Min+[(Max−Min)/(1+(IC50/x)^slope)]. The Excel Solver function was utilized for parameter optimization, as described previously (Carter, P. H., et al., Endocrinology 140: 4972-4981 (1999); Bowen, W. P., and Jerman, J. C., Trends in Pharmacol. Sci. 16: 413-417 (1995)). Differences between paired data sets were statistically evaluated using a one-tailed Student's t-test, assuming unequal variances for the two sets.
The possibility that the activity-enhancing effects of the Aib substitutions at positions 1 and 3 were mediated through the juxtamembrane (J) region of the receptor was investigated in COS-7 cells transiently transfected with P1R-delNt. P1R-delNt was a truncated P1R that lacked most of the amino-terminal extracellular domain.

[2] = target: T2, wild-type human P1R (hP1R-WT) (Homo sapiens, UniProt Q03431); test: cAMP stimulation in COS-7 cells expressing hP1R-WT; details: for cAMP EMax(obs.) / EC50: hP1R-WT; for cAMP EMax(obs.): basal 10.3 ± 1.1, asterisk = plateau not attained
T2 construct: expressed in transfected cells; host or cells: COS-7 (transient, FuGENE 6)
T2 sequence (Q03431 27-593): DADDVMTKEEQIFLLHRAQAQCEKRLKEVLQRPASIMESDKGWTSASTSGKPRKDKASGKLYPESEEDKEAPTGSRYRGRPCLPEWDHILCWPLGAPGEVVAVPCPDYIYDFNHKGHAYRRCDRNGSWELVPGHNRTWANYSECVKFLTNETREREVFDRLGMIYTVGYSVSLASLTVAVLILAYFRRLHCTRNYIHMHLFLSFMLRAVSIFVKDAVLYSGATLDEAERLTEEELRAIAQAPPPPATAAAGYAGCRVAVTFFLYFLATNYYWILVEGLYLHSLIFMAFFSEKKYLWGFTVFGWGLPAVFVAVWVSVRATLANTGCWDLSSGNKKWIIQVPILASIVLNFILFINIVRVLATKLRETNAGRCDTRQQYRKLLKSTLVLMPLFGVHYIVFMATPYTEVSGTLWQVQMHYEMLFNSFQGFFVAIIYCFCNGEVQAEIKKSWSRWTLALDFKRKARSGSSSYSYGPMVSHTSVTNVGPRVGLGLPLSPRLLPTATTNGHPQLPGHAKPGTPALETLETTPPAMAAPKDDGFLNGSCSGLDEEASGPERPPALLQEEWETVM
Procedure: as §1, §2, §3

[3] = target: T1, P1R-delNt, truncated human P1R deleted for residues (24-181); test: Stimulation of inositol phosphate production (PLC) in COS-7 cells expressing hP1R-delNt; details: for increase in inositol phosphate (IP) production relative to the basal level: P1R-delNt
Procedure: as §1
Stimulation of Inositol Phosphate Production. COS-7 cells transfected as above with P1R-WT were treated with serum-free, inositol-free DMEM containing 0.1% bovine serum albumin and [^3H]myo-inositol (NEN, Boston, Mass.) (2 μCi/mL) for 16 h prior to assay. At the time of the assay, the cells were rinsed with binding buffer containing LiCl (30 mM) and treated with the same buffer with or without a PTH analog. The cells were then incubated at 37° C. for 40 min, after which the buffer was removed and replaced by 0.5 mL of ice cold 5% trichloroacetic acid solution. After 3 h on ice, the lysate was collected and extracted twice with ethyl ether. The lysate was then applied to an ion exchange column (0.5 mL resin bed) and the total inositol phosphates were eluted as described previously (Berridge, M. J., et al., Biochem. J. 212:473-482 (1983)), and counted in liquid scintillation cocktail.
Thus, the truncated receptor can couple to the PCL signaling pathway when stimulated with the Aib-containing PTH peptide. […] Thus, the Aib-1,3 substitutions enhance the ligand's capacity to stimulate PLC activity with P1R-WT, as well as with P1R-delNt.

| cAMP EMax(obs.) [1] [pmole/well] | cAMP EMax(obs.) [2] [pmole/well] | cAMP EMax ([1]; P1R-delNt) [picomole/well] | cAMP potency, fold more potent than [M]PTH(1-14) ([1]; P1R-delNt) [fold] | EC50 [1] [nM] | increase in inositol phosphate (IP) production relative to the basal level [3] | PLC EMAX(obs.) ([3]; hP1R-delNT) [foldxbasal] | EC50 ([3]; hP1R-delNT, dash = no PLC response observed) [nM] | EC50 [2] [nM] | cAMP potency, fold weaker on P1R-delNt than P1R-WT [1] [fold] | cAMP EMax ([2]; P1R-WT) [picomole/well] | Compound |
| --- | --- | --- | --- | --- | --- | --- | --- | --- | --- | --- | --- |
| 84 ± 4 | 120 ± 10 |  |  |  |  |  |  |  |  |  | CC[C@H](C)[C@H](NC(=O)[C@H](CCC(=O)O)NC(=O)C(C)(C)NC(=O)[C@@H](NC(=O)C(C)(C)N)C(C)C)C(=O)N[C@@H](CCC(N)=O)C(=O)N[C@@H](CC(C)C)C(=O)N[C@@H](CCSC)C(=O)N[C@@H](Cc1c[nH]cn1)C(=O)N[C@@H](CCC(N)=O)C(N)=O [[Aib^1,3,M]PTH(1-10), [Aib^1,3,Gln^10]PTH(1-10)] (H-[Aib]V[Aib]EIQLMHQ-NH2) |
| 110 ± 10 | 140 ± 30 |  |  |  |  |  |  |  |  |  | H-AVSEIQLMHNLGKH-NH2 [PTH(1-14), reference compound] |
| 250 ± 20 | 240 ± 40 | 250±20 | 55 | 0.73 ± 0.16 | ~3 fold | 3.1 ± 0.2 | 130 ± 30 | 1.2 ± 0.6 |  |  | CC[C@H](C)[C@H](NC(=O)[C@H](CCC(=O)O)NC(=O)C(C)(C)NC(=O)[C@@H](NC(=O)C(C)(C)N)C(C)C)C(=O)N[C@@H](CCC(N)=O)C(=O)N[C@@H](CC(C)C)C(=O)N[C@@H](CCSC)C(=O)N[C@@H](Cc1c[nH]cn1)C(=O)N[C@@H](CCC(N)=O)C(=O)N[C@@H](CCCCNC(=N)N)C(=O)N[C@@H](C)C(=O)N[C@@H](CCCCN)C(=O)N[C@@H](Cc1c[nH]c2ccccc12)C(N)=O [[Aib^1,3,M]PTH(1-14), AibValAibGluIleGlnLeuMetHisGlnHarAlaLysTrp] (H-[Aib]V[Aib]EIQLMHQ[hArg]AKW-NH2) |
| 220 ± 30 | 240 ± 50 |  |  | 680 ± 110 | inactive |  |  | 1.4 ± 0.7 | ~500 | 240±50 | CCCC[C@H](NC(=O)[C@H](CCCNC(=N)N)NC(=O)[C@H](CCC(=O)O)NC(=O)[C@@H](NC(=O)[C@H](CO)NC(=O)[C@H](C)NC(=O)[C@H](CC(C)C)NC(=O)[C@H](Cc1c[nH]cn1)NC(=O)[C@H](CCCCN)NC(=O)CNC(=O)[C@H](CC(C)C)NC(=O)[C@H](CC(N)=O)NC(=O)[C@H](Cc1c[nH]cn1)NC(=O)[C@H](CCCC)NC(=O)[C@H](CC(C)C)NC(=O)[C@H](CCC(N)=O)NC(=O)[C@@H](NC(=O)[C@H](CCC(=O)O)NC(=O)[C@H](CO)NC(=O)[C@@H](NC(=O)[C@H](C)N)C(C)C)[C@@H](C)CC)C(C)C)C(=O)N[C@@H](CCC(N)=O)C(=O)N[C@@H](Cc1c[nH]c2ccccc12)C(=O)N[C@@H](CC(C)C)C(=O)N[C@@H](CCCNC(=N)N)C(=O)N[C@@H](CCCCN)C(=O)N[C@@H](CCCCN)C(=O)N[C@@H](CC(C)C)C(=O)N[C@@H](CCC(N)=O)C(=O)N[C@@H](CC(=O)O)C(=O)N[C@H](C(=O)N[C@@H](Cc1c[nH]cn1)C(=O)N[C@@H](CC(N)=O)C(=O)N[C@@H](Cc1ccc(O)cc1)C(N)=O)C(C)C [PTH(1-34), [Nle^8,21, Tyr^34]PTH(1-34)amide, reference compound] |
| 220 ± 20 | 240 ± 50 |  |  |  | inactive |  |  |  |  |  | CC[C@H](C)[C@H](NC(=O)[C@H](CCC(=O)O)NC(=O)[C@H](C)NC(=O)[C@@H](NC(=O)[C@H](C)N)C(C)C)C(=O)N[C@@H](CCC(N)=O)C(=O)N[C@@H](CC(C)C)C(=O)N[C@@H](CCSC)C(=O)N[C@@H](Cc1c[nH]cn1)C(=O)N[C@@H](CCC(N)=O)C(=O)N[C@@H](CCCCNC(=N)N)C(=O)N[C@@H](C)C(=O)N[C@@H](CCCCN)C(=O)N[C@@H](Cc1c[nH]c2ccccc12)C(N)=O [[M]PTH(1-14), [Ala^3,12,Gln^10,Har^11,Trp^14]PTH(1-14)amide, reference compound] (H-AVAEIQLMHQ[hArg]AKW-NH2) |
| 220 ± 20 | 190 ± 40 |  |  |  |  |  |  |  |  |  | CC[C@H](C)[C@H](NC(=O)[C@H](CCC(=O)O)NC(=O)C(C)(C)NC(=O)[C@@H](NC(=O)C(C)(C)N)C(C)C)C(=O)N[C@@H](CCC(N)=O)C(=O)N[C@@H](CC(C)C)C(=O)N[C@@H](CCSC)C(=O)N[C@@H](Cc1c[nH]cn1)C(=O)N[C@@H](CCC(N)=O)C(=O)N[C@@H](CCCCNC(=N)N)C(N)=O [[Aib^1,3,M]PTH(1-11), AibValAibGluIleGlnLeuMetHisGlnHar] (H-[Aib]V[Aib]EIQLMHQ[hArg]-NH2) |
